Columns and labels:
Type in all cases: in vivo
Spodoptera littoralis [1] = test: Spodoptera littoralis (Egyptian cotton leaf worm), sprayed cotton leaf discs; settings: foliar, 72 h, application rate 200 ppm, L1 larvae, 3 days after infestation, read-out: control (mortality, anti-feeding effect, growth inhibition)
How it was run: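 Five first-instar larvae placed on dried cotton leaf discs (on agar) previously sprayed with aqueous dilutions of 10'000 ppm DMSO stocks. Scored at 3 days against untreated discs for mortality, feeding inhibition and growth inhibition; any category above untreated counts as control.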

Tetranychus urticae = Tetranychus urticae (two-spotted spider mite): feeding/contact activity; settings: 192 h, application rate 200 ppm, mixed population (mobile stages), 8 days after infestation, read-out: mortality
Procedure: Bean leaf discs on agar in 24-well microtiter plates were sprayed with aqueous test solutions prepared from 10'000 ppm DMSO stock solutions. After drying the leaf discs were infested with a mite population of mixed ages. The samples were assessed for mortality on mixed population (mobile stages) 8 days after infestation.

Myzus persicae = Myzus persicae (green peach aphid): feeding/contact activity; settings: 144 h, application rate 200 ppm, aphid population of mixed ages, 6 days after infestation, read-out: mortality
Procedure: (§1) Sunflower leaf discs were placed onto agar in a 24-well microtiter plate and sprayed with aqueous test solutions prepared from 10'000 ppm DMSO stock solutions. After drying, the leaf discs were infested with an aphid population of mixed ages. The samples were assessed for mortality 6 days after infestation.

Spodoptera littoralis [2] = test: Spodoptera littoralis (Egyptian cotton leaf worm), uptake by lettuce roots from agar; settings: 144 h, read-out: effect in at least one of the three categories (mortality, anti-feeding, or growth inhibition); for percent effect (mortality, anti-feeding or growth inhibition) at 12.5 ppm: test rate 12.5 ppm, eggs, 6 days after infestation
How it was run: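 Systemic test: Spodoptera eggs placed on lettuce leaves from seedlings raised 7 days on agar containing the compound (diluted from 10'000 ppm DMSO stock). Six days after infestation, larvae scored against untreated controls for mortality, feeding deterrence and growth inhibition.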

Plutella xylostella = Plutella xylostella (diamond back moth), artificial diet; settings: 120 h, application rate 200 ppm, L2 larvae, 5 days after infestation, read-out: effect in at least one of the two categories (mortality or growth inhibition)
How it was run: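 L2 larvae (10-15 per well) fed on compound-treated, dried artificial diet; test solutions diluted in water from 10'000 ppm DMSO stocks. Readout 5 days post-infestation as mortality or growth inhibition versus untreated diet, with at least 80% effect at 200 ppm as threshold.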

Euschistus heros = Euschistus heros (neotropical brown stink bug), sprayed soybean leaves; settings: 120 h, application rate 200 ppm, N2 nymphs, 5 days after infestation, read-out: effect in at least one of the two categories (mortality or growth inhibition)
How it was run: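 Scored 5 days post-infestation versus untreated controls, for both mortality and growth inhibition: N2 nymphs placed on agar-mounted soybean leaves previously sprayed at 200 ppm with aqueous test solutions from DMSO stocks and left to dry.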

Diabrotica balteata = Diabrotica balteata (corn root worm), sprayed maize sprouts; settings: 96 h, application rate 200 ppm, L2 larvae, 4 days after infestation, read-out: effect in at least one of the two categories (mortality or growth inhibition)
How it was run: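 Read-out at 4 days post-infestation: mortality and growth inhibition relative to untreated samples. Test solutions (200 ppm, from DMSO stocks) were sprayed onto agar-held maize sprouts, which after drying received 6–10 L2 larvae per well.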

Thrips tabaci = Thrips tabaci (onion thrips): feeding/contact activity; settings: 144 h, application rate 200 ppm, Thrips population of mixed ages, 6 days after infestation, read-out: mortality
Procedure: as §1, with “on” for “onto”, “in” for “in a”, “plates” for “plate”, “drying” for “drying,”, “a Thrips” for “an aphid”

CNS(=O)(=O)N1C[C@@H](NC(=O)c2ccc(C3=NO[C@@](c4cc(Cl)c(Cl)c(Cl)c4)(C(F)(F)F)C3)cc2Cl)CO1 [Compound A126, 2-chloro-N-[(4R)-2-(methylsulfamoyl)isoxazolidin-4-yl]-4-[(5S)-5-(3,4,5-trichlorophenyl)-5-(trifluoromethyl)-4H-isoxazol-3-yl]benzamide]
≥ 80%: mortality at 200 ppm (Spodoptera littoralis [1]) | mortality at 200 ppm (Tetranychus urticae) | mortality at 200 ppm (Myzus persicae) | percent control (mortality, anti-feedant effect or growth inhibition) at 12.5 ppm (Spodoptera littoralis [2]) | percent effect (mortality or growth inhibition) at 200 ppm (Plutella xylostella) | percent effect (mortality or growth inhibition) at 200 ppm (Euschistus heros) | percent effect (mortality or growth inhibition) at 200 ppm (Diabrotica balteata) | mortality at 200 ppm (Thrips tabaci)

CCN(C)S(=O)(=O)N1C[C@@H](NC(=O)c2ccc(C3=NO[C@@](c4cc(Cl)c(Cl)c(Cl)c4)(C(F)(F)F)C3)cc2C)CO1 [Compound A72, N-[(4R)-2-[ethyl(methyl)sulfamoyl]isoxazolidin-4-yl]-2-methyl-4-[(5S)-5-(3,4,5-trichlorophenyl)-5-(trifluoromethyl)-4H-isoxazol-3-yl]benzamide]
≥ 80%: mortality at 200 ppm (Spodoptera littoralis [1]) | mortality at 200 ppm (Tetranychus urticae) | mortality at 200 ppm (Myzus persicae) | percent control (mortality, anti-feedant effect or growth inhibition) at 12.5 ppm (Spodoptera littoralis [2]) | percent effect (mortality or growth inhibition) at 200 ppm (Plutella xylostella) | percent effect (mortality or growth inhibition) at 200 ppm (Euschistus heros) | percent effect (mortality or growth inhibition) at 200 ppm (Diabrotica balteata) | mortality at 200 ppm (Thrips tabaci)

Cc1cc(C2=NO[C@@](c3cc(Cl)cc(Cl)c3)(C(F)(F)F)C2)ccc1C(=O)N[C@H]1CON(S(C)(=O)=O)C1 [Compound A38]
≥ 80%: mortality at 200 ppm (Spodoptera littoralis [1]) | mortality at 200 ppm (Tetranychus urticae) | mortality at 200 ppm (Myzus persicae) | percent control (mortality, anti-feedant effect or growth inhibition) at 12.5 ppm (Spodoptera littoralis [2]) | percent effect (mortality or growth inhibition) at 200 ppm (Plutella xylostella) | percent effect (mortality or growth inhibition) at 200 ppm (Euschistus heros) | percent effect (mortality or growth inhibition) at 200 ppm (Diabrotica balteata) | mortality at 200 ppm (Thrips tabaci)

CN(C)S(=O)(=O)N1C[C@@H](NC(=O)c2ccc(C3=NO[C@@](c4cc(Cl)c(F)c(Cl)c4)(C(F)(F)F)C3)cc2Cl)CO1 [Compound A107]
≥ 80%: mortality at 200 ppm (Spodoptera littoralis [1]) | mortality at 200 ppm (Tetranychus urticae) | mortality at 200 ppm (Myzus persicae) | percent control (mortality, anti-feedant effect or growth inhibition) at 12.5 ppm (Spodoptera littoralis [2]) | percent effect (mortality or growth inhibition) at 200 ppm (Plutella xylostella) | percent effect (mortality or growth inhibition) at 200 ppm (Euschistus heros) | percent effect (mortality or growth inhibition) at 200 ppm (Diabrotica balteata) | mortality at 200 ppm (Thrips tabaci)

C=CCN(C)S(=O)(=O)N1CC(NC(=O)c2ccc(C3=NO[C@@](c4cc(Cl)c(Cl)c(Cl)c4)(C(F)(F)F)C3)cc2C)CO1 (stereo partly drawn) [Compound A82, N-[2-[allyl(methyl)sulfamoyl]isoxazolidin-4-yl]-2-methyl-4-[(5S)-5-(3,4,5-trichlorophenyl)-5-(trifluoromethyl)-4H-isoxazol-3-yl]benzamide]
≥ 80%: mortality at 200 ppm (Spodoptera littoralis [1]) | mortality at 200 ppm (Tetranychus urticae) | mortality at 200 ppm (Myzus persicae) | percent control (mortality, anti-feedant effect or growth inhibition) at 12.5 ppm (Spodoptera littoralis [2]) | percent effect (mortality or growth inhibition) at 200 ppm (Plutella xylostella) | percent effect (mortality or growth inhibition) at 200 ppm (Euschistus heros) | percent effect (mortality or growth inhibition) at 200 ppm (Diabrotica balteata) | mortality at 200 ppm (Thrips tabaci)

Cc1cc(C2=NOC(c3cc(Cl)c(Br)c(Cl)c3)(C(F)(F)F)C2)ccc1C(=O)NC1CON(S(C)(=O)=O)C1 (stereo not shown) [Compound A45]
≥ 80%: mortality at 200 ppm (Spodoptera littoralis [1]) | mortality at 200 ppm (Tetranychus urticae) | mortality at 200 ppm (Myzus persicae) | percent control (mortality, anti-feedant effect or growth inhibition) at 12.5 ppm (Spodoptera littoralis [2]) | percent effect (mortality or growth inhibition) at 200 ppm (Plutella xylostella) | percent effect (mortality or growth inhibition) at 200 ppm (Euschistus heros) | percent effect (mortality or growth inhibition) at 200 ppm (Diabrotica balteata) | mortality at 200 ppm (Thrips tabaci)

CCN(CC)S(=O)(=O)N1CC(NC(=O)c2ccc(C3=NO[C@@](c4cc(Cl)c(F)c(Cl)c4)(C(F)(F)F)C3)cc2C)CO1 (stereo partly drawn) [Compound A98, 4-[(5S)-5-(3,5-dichloro-4-fluoro-phenyl)-5-(trifluoromethyl)-4H-isoxazol-3-yl]-N-[2-(diethylsulfamoyl)isoxazolidin-4-yl]-2-methyl-benzamide]
≥ 80%: mortality at 200 ppm (Spodoptera littoralis [1]) | mortality at 200 ppm (Tetranychus urticae) | mortality at 200 ppm (Myzus persicae) | percent control (mortality, anti-feedant effect or growth inhibition) at 12.5 ppm (Spodoptera littoralis [2]) | percent effect (mortality or growth inhibition) at 200 ppm (Plutella xylostella) | percent effect (mortality or growth inhibition) at 200 ppm (Euschistus heros) | percent effect (mortality or growth inhibition) at 200 ppm (Diabrotica balteata) | mortality at 200 ppm (Thrips tabaci)

CCS(=O)(=O)N1C[C@@H](NC(=O)c2ccc(C3=NO[C@@](c4cc(Cl)cc(Cl)c4)(C(F)(F)F)C3)cc2Cl)CO1 [Compound A117]
≥ 80%: mortality at 200 ppm (Spodoptera littoralis [1]) | mortality at 200 ppm (Tetranychus urticae) | mortality at 200 ppm (Myzus persicae) | percent control (mortality, anti-feedant effect or growth inhibition) at 12.5 ppm (Spodoptera littoralis [2]) | percent effect (mortality or growth inhibition) at 200 ppm (Plutella xylostella) | percent effect (mortality or growth inhibition) at 200 ppm (Euschistus heros) | percent effect (mortality or growth inhibition) at 200 ppm (Diabrotica balteata) | mortality at 200 ppm (Thrips tabaci)

Cc1cc(C2=NO[C@@](c3cc(Cl)c(F)c(Cl)c3)(C(F)(F)F)C2)ccc1C(=O)NC1CON(S(=O)(=O)N(C)C#N)C1 (stereo partly drawn) [Compound A81, N-[2-[cyano(methyl)sulfamoyl]isoxazolidin-4-yl]-4-[(5S)-5-(3,5-dichloro-4-fluoro-phenyl)-5-(trifluoromethyl)-4H-isoxazol-3-yl]-2-methyl-benzamide]
≥ 80%: mortality at 200 ppm (Spodoptera littoralis [1]) | mortality at 200 ppm (Tetranychus urticae) | mortality at 200 ppm (Myzus persicae) | percent control (mortality, anti-feedant effect or growth inhibition) at 12.5 ppm (Spodoptera littoralis [2]) | percent effect (mortality or growth inhibition) at 200 ppm (Plutella xylostella) | percent effect (mortality or growth inhibition) at 200 ppm (Euschistus heros) | percent effect (mortality or growth inhibition) at 200 ppm (Diabrotica balteata) | mortality at 200 ppm (Thrips tabaci)

Cc1cc(C2=NO[C@@](c3cc(Cl)c(F)c(Cl)c3)(C(F)(F)F)C2)ccc1C(=O)NC1CON(S(=O)(=O)C2CC2)C1 (stereo partly shown) [Compound A6]
≥ 80%: mortality at 200 ppm (Spodoptera littoralis [1]) | mortality at 200 ppm (Tetranychus urticae) | mortality at 200 ppm (Myzus persicae) | percent control (mortality, anti-feedant effect or growth inhibition) at 12.5 ppm (Spodoptera littoralis [2]) | percent effect (mortality or growth inhibition) at 200 ppm (Plutella xylostella) | percent effect (mortality or growth inhibition) at 200 ppm (Euschistus heros) | percent effect (mortality or growth inhibition) at 200 ppm (Diabrotica balteata) | mortality at 200 ppm (Thrips tabaci)

Cc1cc(C2=NOC(c3ccc(Cl)c(Cl)c3)(C(F)(F)F)C2)ccc1C(=O)NC1CON(S(C)(=O)=O)C1 (stereo not shown) [Compound A66]
≥ 80%: mortality at 200 ppm (Spodoptera littoralis [1]) | mortality at 200 ppm (Tetranychus urticae) | mortality at 200 ppm (Myzus persicae) | percent effect (mortality, anti-feeding or growth inhibition) at 12.5 ppm (Spodoptera littoralis [2]) | percent effect (mortality or growth inhibition) at 200 ppm (Plutella xylostella) | percent effect (mortality or growth inhibition) at 200 ppm (Euschistus heros) | percent effect (mortality or growth inhibition) at 200 ppm (Diabrotica balteata) | mortality at 200 ppm (Thrips tabaci)

CCS(=O)(=O)N1CC(NC(=O)c2ccc(C3=NO[C@@](c4cc(Cl)c(F)c(Cl)c4)(C(F)(F)F)C3)cc2Br)CO1 (stereo partly drawn) [Compound A44, 2-bromo-4-[(5S)-5-(3,5-dichloro-4-fluoro-phenyl)-5-(trifluoromethyl)-4H-isoxazol-3-yl]-N-(2-ethylsulfonylisoxazolidin-4-yl)benzamide]
≥ 80%: mortality at 200 ppm (Spodoptera littoralis [1]) | mortality at 200 ppm (Tetranychus urticae) | mortality at 200 ppm (Myzus persicae) | percent control (mortality, anti-feedant effect or growth inhibition) at 12.5 ppm (Spodoptera littoralis [2]) | percent effect (mortality or growth inhibition) at 200 ppm (Plutella xylostella) | percent effect (mortality or growth inhibition) at 200 ppm (Euschistus heros) | percent effect (mortality or growth inhibition) at 200 ppm (Diabrotica balteata) | mortality at 200 ppm (Thrips tabaci)

Cc1cc(C2=NOC(c3cc(Cl)cc(Cl)c3)(C(F)(F)Cl)C2)ccc1C(=O)NC1CON(S(C)(=O)=O)C1 (stereo not shown) [Compound A64]
≥ 80%: mortality at 200 ppm (Spodoptera littoralis [1]) | mortality at 200 ppm (Tetranychus urticae) | mortality at 200 ppm (Myzus persicae) | percent effect (mortality, anti-feeding or growth inhibition) at 12.5 ppm (Spodoptera littoralis [2]) | percent effect (mortality or growth inhibition) at 200 ppm (Plutella xylostella) | percent effect (mortality or growth inhibition) at 200 ppm (Euschistus heros) | percent effect (mortality or growth inhibition) at 200 ppm (Diabrotica balteata) | mortality at 200 ppm (Thrips tabaci)

Cc1cc(C2=NOC(c3cc(C(F)(F)F)cc(C(F)(F)F)c3)(C(F)(F)F)C2)ccc1C(=O)NC1CON(S(C)(=O)=O)C1 (stereo not shown) [Compound A59]
≥ 80%: mortality at 200 ppm (Spodoptera littoralis [1]) | mortality at 200 ppm (Tetranychus urticae) | mortality at 200 ppm (Myzus persicae) | percent control (mortality, anti-feedant effect or growth inhibition) at 12.5 ppm (Spodoptera littoralis [2]) | percent effect (mortality or growth inhibition) at 200 ppm (Plutella xylostella) | percent effect (mortality or growth inhibition) at 200 ppm (Euschistus heros) | percent effect (mortality or growth inhibition) at 200 ppm (Diabrotica balteata) | mortality at 200 ppm (Thrips tabaci)
